From patent publication US20040116420A1 (priority 2001, published 2004)

Legend:
HSV-1 protease = target: T1, HSV-1 protease (Human herpesvirus 1, UniProt P10210); experiment: Enzymatic assay for HSV-1 protease (assembly) inhibitor, fluorescence polarization; assay type: biochemical; settings: read-out: HSV-1 Enzyme inhibition IC50
T1 construct: 6xHis (N); made in house; host or cells: baculovirus expression system
How it was run: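 His6-tagged HSV-1 UL26 protease, baculovirus-expressed, preincubated 30 min at RT with compound in 1 M citrate/phosphate buffer pH 7.4 with 20% glycerol and 2 mM TCEP. A biotin-HTYLQA*SERFRIK-DTAF substrate was then cleaved for 60 min at RT, stopped with avidin, and read by fluorescence polarization versus no-inhibitor control.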

HSV-1 = experiment: Antiviral activity, HSV-1 in Vero cells, plaque method; assay type: cell-based; settings: Human alphaherpesvirus 1, 20 hours, 90% inhibition of plaque formation
How it was run: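 HSV-1 (50,000 pfu in 2% FBS-DMEM) was added to Vero cells and removed, then the compound was applied in 2% FBS-DMEM for 20 h at 37° C, 5% CO2. After a freeze-thaw, virus yield in the medium was titred by plaque assay. EC90 is the concentration giving 90% plaque reduction versus the compound-free control.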

Vero cells = experiment: Cytotoxicity, Vero cells, Alamar Blue; assay type: cell-based; settings: 25 μM, 20 hours
How it was run: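 Overnight-seeded Vero cells were exposed to 25 μM compound in 2% FBS-DMEM for 20 h at 37 °C, 5% CO2. Alamar Blue was then added for about 6 h. The absorbance ratio relative to compound-free control gave the living-cell ratio.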

T1 sequence (P10210 1-247): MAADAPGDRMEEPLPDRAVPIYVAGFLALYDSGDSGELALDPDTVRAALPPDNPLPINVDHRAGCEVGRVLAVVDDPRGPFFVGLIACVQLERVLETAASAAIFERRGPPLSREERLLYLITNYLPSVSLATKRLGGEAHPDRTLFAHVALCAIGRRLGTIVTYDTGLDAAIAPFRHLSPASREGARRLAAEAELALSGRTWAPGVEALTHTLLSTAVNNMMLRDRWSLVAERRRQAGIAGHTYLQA

| Structure (SMILES) | IC50 (HSV-1 protease) [µM] | EC90 (HSV-1) [µM] | Cell viability (% of control) (Vero cells) [%] |
| --- | --- | --- | --- |
| Cc1c(NC(=O)c2ccc3ccccc3c2)ccc2nc(NC(C)(C)C(=O)N(C)CCc3ccccn3)oc(=O)c12 [Compound No.194, Naphthalene-2-carboxylic acid (5-methyl-2-{1-methyl-1-[methyl-(2-pyridin-2-yl-ethyl)-carbamoyl]-ethylamino}-4-oxo-4H-benzo[d][1,3]oxazin-6-yl)-amide] | 6.7 | 11.8 | 71.8 |
| Cc1cc(C(=O)Nc2ccc3nc(NC(C)(C)C(=O)N(C)CCc4ccccn4)oc(=O)c3c2C)c(C(F)(F)F)o1 [Compound No.175, 5-Methyl-2-trifluoromethyl-furan-3-carboxylic acid (5-methyl-2-{1-methyl-1-[methyl-(2-pyridin-2-yl-ethyl)-carbamoyl]-ethylamino}-4-oxo-4H-benzo [d][1,3]oxazin-6-yl)-amide] | 2.5 | > 12.5 | 99.4 |
| Cc1c(NC(=O)OC(C)(C)C)ccc2nc(N3CCC[C@H]3C(=O)N(C)CCc3cccnc3)oc(=O)c12 [Compound No.92, (5-Methyl-2-{2S-[methyl-(2-pyridin-3-yl-ethyl)-carbamoyl]-pyrrolidin-1-yl}-4-oxo-4H-benzo[d][1,3]oxazin-6-yl)-carbamic acid tert-butyl ester] | > 20 | > 12.5 | 87.2 |
| Cc1c(NC(=O)OC(C)(C)C)ccc2nc(N(C)[C@@H](C)C(=O)NCc3ccncc3)oc(=O)c12 [Compound No.73, [5-Methyl-2-(methyl-{1S-[(pyridin-4-ylmethyl)-carbamoyl]-ethyl}-amino)-4-oxo-4H-benzo[d][1,3]oxazin-6-yl]-carbamic acid tert-butyl ester] | 1 | > 12.5 | 79.8 |
| Cc1c(NC(=O)CCCNC(=O)c2ccc(N(C)C)cc2)ccc2nc(NC(C)(C)C(=O)N(C)CCc3ccccn3)oc(=O)c12 [Compound No.224, 4-Dimethylamino-N-[3-(5-methyl-2-{1-methyl-1-[methyl-(2-pyridin-2-yl-ethyl)-carbamoyl]-ethylamino}-4-oxo-4H-benzo[d][1,3]oxazin-6-ylcarbamoyl)-propyl]-benzamide] | 0.4 | > 12.5 | 107.5 |
| Cc1c(NC(=O)c2ccc([N+](=O)[O-])o2)ccc2nc(NC(C)(C)C(=O)N(C)CCc3ccccn3)oc(=O)c12 [Compound No.177, 5-Nitro-furan-2-carboxylic acid (5-methyl-2-{1-methyl-1-[methyl-(2-pyridin-2-yl-ethyl)-carbamoyl]-ethylamino}-4-oxo-4H-benzo[d][1,3]oxazin-6-yl)-amide] | 6 | > 12.5 | 38.0 |
| Cc1c(NC(=O)CCCNC(=O)c2ccccn2)ccc2nc(NC(C)(C)C(=O)N(C)CCc3ccccn3)oc(=O)c12 [Compound No.221, Pyridine-2-carboxylic acid [3-(5-methyl-2-{1-methyl-1-[methyl-(2-pyridin-2-yl-ethyl)-carbamoyl]-ethylamino}-4-oxo-4H-benzo[d][1,3]oxazin-6-ylcarbamoyl)-propyl]-amide] | 0.7 | > 12.5 | 105.3 |
| Cc1c(NC(=O)c2ccc(-c3ccccc3)cc2)ccc2nc(NC(C)(C)C(=O)N(C)CCc3ccccn3)oc(=O)c12 [Compound No.169, Biphenylyl-4-carboxylic acid (5-methyl-2-{1-methyl-1-[methyl-(2-pyridin-2-yl-ethyl)-carbamoyl]-ethylamino}-4-oxo-4H-benzo[d][1,3]oxazin-6-yl)-amide] | 1 | 5.7 | 7.0 |
| Cc1c(NC(=O)c2ccc(Cl)cc2)ccc2nc(NC(C)(C)C(=O)N(C)CCc3ccccn3)oc(=O)c12 [Compound No.153, 4-Chloro-N-(5-methyl-2-{1-methyl-1-[methyl-(2-pyridin-2-yl-ethyl)-carbamoyl]-ethylamino}-4-oxo-4H-benzo[d][1,3]oxazin-6-yl)-benzamide] | 2.6 | 6.2 | 48.6 |
| Cc1c(NC(=O)OC(C)(C)C)ccc2nc(N[C@@H](CC3CCCCC3)C(=O)N(C)CCc3ccccn3)oc(=O)c12 [Compound No.47, (2-{2-cyclohexyl-1S-[methyl-(2-pyridin-2-yl-ethyl)-carbamoyl]-ethylamino}-5-methyl-4-oxo-4H-benzo[d][1,3]oxazin-6-yl)-carbamic acid tert-butyl ester] | 2.9 | < 3.2 | 36.7 |
| Cc1c(NC(=O)CCl)ccc2nc(NC(C)(C)C(=O)N(C)CCc3ccccn3)oc(=O)c12 [Compound No.189, 2-[6-(2-Chloro-acetylamino)-5-methyl-4-oxo-4H-benzo[d][1,3]oxazin-2-ylamino]-2,N-dimethyl-N-(2-pyridin-2-yl-ethyl)-propionamide] | 2 | > 12.5 | 41.0 |
| Cc1c(NC(=O)OC(C)(C)C)ccc2nc(N[C@@H](CCc3ccccc3)C(=O)N(C)CCc3ccncc3)oc(=O)c12 [Compound No.56, (5-Methyl-2-{1S-[methyl-(2-pyridin-4-yl-ethyl)-carbamoyl]-3-phenyl-propylamino}-4-oxo-4H-benzo[d][1,3]oxazin-6-yl)-carbamic acid tert-butyl ester] | 3.2 | 3.7 | 77.9 |
| COc1cccc(C(=O)Nc2ccc3nc(NC(C)(C)C(=O)N(C)CCc4ccccn4)oc(=O)c3c2C)c1 [Compound No.162, 3-Methoxy-N-(5-methyl-2-{1-methyl-1-[methyl-(2-pyridin-2-yl-ethyl)-carbamoyl]-ethylamino}-4-oxo-4H-benzo[d][1,3]oxazin-6-yl)-benzamide] | 1.8 | 10.2 | 75.5 |
| Cc1c(NC(=O)OC(C)(C)C)ccc2nc(N3CCC[C@H]3C(=O)NCc3cccnc3)oc(=O)c12 [Compound No.87, (5-Methyl-4-oxo-2-{2S-[(pyridin-3-ylmethyl)-carbamoyl]-pyrrolidin-1-yl}-4H-benzo[d][1,3]oxazin-6-yl)-carbamic acid tert-butyl ester] | 1.7 | > 12.5 | 92.4 |
| Cc1c(NC(=O)c2ccc3c(c2)OCO3)ccc2nc(NC(C)(C)C(=O)N(C)CCc3ccccn3)oc(=O)c12 [Compound No.193, Benzo[1,3]dioxol-5-carboxylic acid (5-methyl-2-{1-methyl-1-[methyl-(2-pyridin-2-yl-ethyl)-carbamoyl]-ethylamino}-4-oxo-4H-benzo[d][1,3]oxazin-6-yl)-amide] | 3.7 | ≥ 12.5 | 67.0 |
| Cc1c(NC(=O)c2ccc(Br)cc2)ccc2nc(NC(C)(C)C(=O)N(C)CCc3ccccn3)oc(=O)c12 [Compound No.154, 4-Bromo-N-(5-methyl-2-{1-methyl-1-[methyl-(2-pyridin-2-yl-ethyl)-carbamoyl]-ethylamino}-4-oxo-4H-benzo[d][1,3]oxazin-6-yl)-benzamide] | 2.4 | 5.4 | 28.3 |
| Cc1c(NC(=O)c2sc3ccccc3c2Cl)ccc2nc(NC(C)(C)C(=O)N(C)CCc3ccccn3)oc(=O)c12 [Compound No.178, 3-Chloro-benzo[b]thiophene-2-carboxylic acid (5-methyl-2-{1-methyl-1-[methyl-(2-pyridin-2-yl-ethyl)-carbamoyl]-ethylamino}-4-oxo-4H-benzo[d][1,3]oxazin-6-yl)-amide] | 0.9 | 5.8 | 28.1 |
| Cc1c(NC(=O)c2cccc3ccccc23)ccc2nc(NC(C)(C)C(=O)N(C)CCc3ccccn3)oc(=O)c12 [Compound No.190, Naphthalene-1-carboxylic acid (5-methyl-2-{1-methyl-1-[methyl-(2-pyridin-2-yl-ethyl)-carbamoyl]-ethylamino}-4-oxo-4H-benzo[d][1,3]oxazin-6-yl)-amide] | 1.3 | 12.4 | 74.5 |
| Cc1c(NC(=O)OC(C)(C)C)ccc2nc(N[C@@H](Cc3ccccc3)C(=O)N(C)CCc3cccnc3)oc(=O)c12 [Compound No.64, (5-Methyl-2-{1S-[methyl-(2-pyridin-3-yl-ethyl)-carbamoyl]-2-phenyl-ethylamino}-4-oxo-4H-benzo[d][1,3]oxazin-6-yl)-carbamic acid tert-butyl ester] | 0.8 | 5.1 | 70.1 |
| Cc1c(NC(=O)OC(C)(C)C)ccc2nc(N(C)[C@@H](Cc3ccccc3)C(=O)N(C)Cc3ccccn3)oc(=O)c12 [Compound No.82, (5-Methyl-2-{methyl-[1S-(methyl-pyridin-2-ylmethyl-carbamoyl)-2-phenyl-ethyl]-amino}-4-oxo-4H-benzo[d][1,3]oxazin-6-yl)-carbamic acid tert-butyl ester] | 1.5 | 10.8 | 61.6 |
| Cc1c(NC(=O)OC(C)(C)C)ccc2nc(N3CCCC[C@H]3C(=O)NCc3ccccn3)oc(=O)c12 [Compound No.102, (5-Methyl-4-oxo-2-{2S-[(pyridin-2-ylmethyl)-carbamoyl]-piperidin-1-yl}-4H-benzo[d][1,3]oxazin-6-yl)-carbamic acid tert-butyl ester] | 1.6 | > 12.5 | 64.4 |
